Measured values reported in US20040192686A1, “Benzoazine mono-N-oxides and benzoazine 1,4 dioxides and compositions therefrom for the therapeutic use in cancer treatments” (Auckland Uniservices Limited, priority 2003, published 2004).
Counter-ions that a name gives are not always drawn.

melting point	SMILES
47 to 49 °C	CN(C)CCc1nc2ccccc2[n+]([O-])n1
213 to 215 °C	Cl.[O-][n+]1nc(CCN2CCOCC2)nc2ccccc21
228 to 230 °C	CN(C)CCCc1nc2ccccc2[n+]([O-])n1.Cl
151 to 153 °C	Cl.[O-][n+]1nc(CCCN2CCCCC2)nc2ccccc21
220 to 223 °C	CN(C)CCN(C)c1nc2ccccc2[n+]([O-])n1 (as salt: hydrochloride) [Compound 38, N^1,N^1,N^2-Trimethyl-N^2-(1-oxido-1,2,4-benzotriazin-3-yl)-1,2-ethanediamine]
231 to 235 °C	COc1ccc2nc(NCCN(C)C)n[n+]([O-])c2c1 (as salt: hydrochloride) [Compound 92, N^1-(7-Methoxy-1-oxido-1,2,4-benzotriazin-3-yl)-N^2,N^2-dimethyl-1,2-ethanediamine]
235 to 239 °C	COc1cccc2nc(N)n[n+]([O-])c12 (hydrate or solvate) [Compound 3a, 8-Methoxy-1,2,4-benzotriazin-3-amine 1-oxid]
271 to 275 °C	CSc1cccc2nc(N)n[n+]([O-])c12 (hydrate or solvate) [Compound 3f, 8-(Methylsulfanyl)-1,2,4-benzotriazin-3-amine 1-oxide]
251 to 254 °C	Nc1nc2c(Cl)cccc2[n+]([O-])n1 [Compound 3aa, 5-Chloro-1,2,4-benzotriazin-3-amine 1-oxide]
252 to 256 °C	Nc1nc2c(F)cccc2[n+]([O-])n1 [Compound 3ab, 5-Fluoro-1,2,4-benzotriazin-3-amine 1-oxide]
269 to 272 °C	Nc1nc2c([N+](=O)[O-])cccc2[n+]([O-])n1 [Compound 3ac, 5-Nitro-1,2,4-benzotriazin-3-amine-1-oxide]
248 to 252 °C	CSc1cccc2c1nc(N)n[n+]2[O-] [Compound 3ad, 5-Methylsulfanyl-1,2,4-benzotriazin-3-amine 1-oxide]
265 °C (dec.)	Cc1cccc2nc(N)n[n+]([O-])c12 [Compound 3b, 8-Methyl-1,2,4-benzotriazin-3-amine 1-oxide]
270 to 278 °C (dec.)	Nc1nc2cccc(F)c2[n+]([O-])n1 [Compound 3c, 8-Fluoro-1,2,4-benzotriazin-3-amine 1-oxide]
280 to 290 °C (dec.)	Nc1nc2cccc(Cl)c2[n+]([O-])n1 [Compound 3d, 8-Chloro-1,2,4-benzotriazin-3-amine 1-oxide]
280 to 286 °C (dec.)	Nc1nc2cccc(C(F)(F)F)c2[n+]([O-])n1 [Compound 3e, 8-Trifluoromethyl-1,2,4-benzotriazin-3-amine 1-oxid]
233 to 236 °C	CCCCSc1cccc2nc(N)n[n+]([O-])c12 [Compound 3g, 8-(Butylsulfanyl)-1,2,4-benzotriazin-3-amine 1-oxide]
270 °C (dec.)	Cc1ccc2nc(N)n[n+]([O-])c2c1 [Compound 3j, 7-Methyl-1,2,4-benzotriazin-3-amine 1-oxide]
280 to 290 °C (dec.)	Nc1nc2ccc(F)cc2[n+]([O-])n1 [Compound 3k, 7-Fluoro-1,2,4-benzotriazin-3-amin 1-oxide]
309 °C (dec.)	Nc1nc2ccc(Cl)cc2[n+]([O-])n1 [Compound 3l, 7-Chloro-1,2,4-benzotriazin-3-amine 1-oxide]
290 °C (dec.)	Nc1nc2ccc(C(F)(F)F)cc2[n+]([O-])n1 [Compound 3m, 7-Trifluoromethyl-1,2,4-benzotriazin-3-amine 1-oxide]

melting point	SMILES
245 to 247 °C	CSc1ccc2nc(N)n[n+]([O-])c2c1 [Compound 3n, 7-(Methylsulfanyl)-1,2,4-benzotriazin-3-amine 1-oxide]
215 to 217 °C	CCCCSc1ccc2nc(N)n[n+]([O-])c2c1 [Compound 3o, 7-(Butylsulfanyl)-1,2,4-benzotriazin-3-amine 1-oxide]
269 to 272 °C	Nc1nc2ccc([N+](=O)[O-])cc2[n+]([O-])n1 [Compound 3p, 7-Nitro-1,2,4-benzotriazin-3-amine 1-oxide]
265 to 270 °C	COc1ccc2c(c1)nc(N)n[n+]2[O-] [Compound 3q, 6-Methoxy-1,2,4-benzotriazin-3-amine 1-oxide]
263 °C (dec.)	Cc1ccc2c(c1)nc(N)n[n+]2[O-] [Compound 3r, 6-Methyl-1,2,4-benzotriazin-3-amine 1-oxide]
256 to 258 °C	Nc1nc2cc(-c3ccccc3)ccc2[n+]([O-])n1 [Compound 3s, 6-Phenyl-1,2,4-benzotriazin-3-amine 1-oxide]
276 to 280 °C	Nc1nc2cc(F)ccc2[n+]([O-])n1 [Compound 3t, 6-Fluoro-1,2,4-benzotriazin-3-amine 1-oxide]
280 to 284 °C (dec.)	Nc1nc2cc(C(F)(F)F)ccc2[n+]([O-])n1 [Compound 3v, 6-Trifluoromethyl-1,2,4-benzotriazin-3-amine 1-oxide]
248 to 250 °C	CSc1ccc2c(c1)nc(N)n[n+]2[O-] [Compound 3w, 6-(Methylsulfanyl)-1,2,4-benzotriazin-3-amine 1-oxide]
180 to 182 °C	CCCCSc1ccc2c(c1)nc(N)n[n+]2[O-] [Compound 3x, 6-(Butylsulfanyl)-1,2,4-benzotriazin-3-amine 1-oxide]
267 °C (dec.)	COc1cccc2c1nc(N)n[n+]2[O-] [Compound 3y, 5-Methoxy-1,2,4-benzotriazin-3-amine 1-oxide]
253 to 255 °C	Cc1cccc2c1nc(N)n[n+]2[O-] [Compound 3z, 5-Methyl-1,2,4-benzotriazin-3-amine 1-oxide]
231 to 233 °C	CN(C)c1ccc2nc(N)n[n+]([O-])c2c1 [Compound 11, N^7,N^7-Dimethyl-1,2,4-benzotriazine-3,7-diamine 1-oxide]
247 to 251 °C	CCN(CC)c1ccc2c(c1)nc(N)n[n+]2[O-] [Compound 13, N^6, N^6-Diethyl-1,2,4-benzotriazine-3,6-diamine 1-oxide]
201 to 203 °C	COCCOc1ccc2nc(N)n[n+]([O-])c2c1 [Compound 14, 7-(2-Methoxyethoxy)-1,2,4-benzotriazin-3-amine 1-oxide]
228 to 230 °C	Nc1nc2ccc(OCCBr)cc2[n+]([O-])n1 [Compound 15, 7-(2-Bromoethoxy)-1,2,4-benzotriazin-3-amine 1-oxide]
175 to 181 °C	Nc1nc2ccc(OCCN3CCOCC3)cc2[n+]([O-])n1 [Compound 17, 7-[2-(4-Morpholinyl)ethoxy]-1,2,4-benzotriazin-3-amin 1-oxide]
136 to 138 °C	CCOC(=O)CNc1nc2ccccc2[n+]([O-])n1 [Compound 20, Ethyl [(1-oxido-1,2,4-benzotriazin-3-yl)amino]acetate]
217 to 219 °C	O=C(O)CNc1nc2ccccc2[n+]([O-])n1 [Compound 21, [(1-Oxido-1,2,4-benzotriazin-3-yl)amino]acetic acid]
155 to 156 °C	COCCNc1nc2ccccc2[n+]([O-])n1 [Compound 23, N-(2-Methoxyethyl)-1,2,4-benzotriazin-3-amine 1-oxide]
